According to ChEMBL document CHEMBL3885861, “Open TG-GATES”:

Species on record: Rattus norvegicus
Test: Open TG-GATES - Regimen: Single
Assay type: toxicity, organism-based, Sprague-Dawley
Design: regimen Single, gender Male, age 6 weeks
Details: in vivo, po, 300 mg/kg, route gavage, dose level High; for APTT / Bas / Eos / Fbg / Hb / Ht / Lym / MCH / MCHC / MCV / Mono / Neu / PT / Plat / RBC / Ret / WBC: tissue Blood; for KIDNEY_L / KIDNEY_R / KIDNEY_TOTAL: tissue Kidney; for LIVER: tissue Liver; for A/G / ALP / ALT / AST / BUN / CRE / Ca / Cl / DBIL / GLC / IP / K / LDH / Na / PL / RALB / TBIL / TC / TG / TP / gamma-GTP: tissue Plasma

Which results are given for `CCCNC(=O)NS(=O)(=O)c1ccc(Cl)cc1` [CHLORPROPAMIDE]?
TERMINAL_BW (3 h): 198 g; APTT (3 h): 20.5 s; Bas (3 h): 0%; Eos (3 h): 0.6%; Fbg (3 h): 309.8 mg/dL; Hb (3 h): 14.6 g/dL; Ht (3 h): 45.2%; Lym (3 h): 74.8%; MCH (3 h): 20.8 pg; MCHC (3 h): 32.2%; MCV (3 h): 64.6 fL; Mono (3 h): 4.6%; Neu (3 h): 18.6%; PT (3 h): 15.7 s; Plat (3 h): 121.4 x10_4/uL; RBC (3 h): 700.6 x10_4/ul; Ret (3 h): 9.7%; WBC (3 h): 57 x10_2/uL; KIDNEY_L (3 h): 0.8 g; KIDNEY_R (3 h): 0.9 g; KIDNEY_TOTAL (3 h): 1.7 g; LIVER (3 h): 9.1 g; A/G (3 h): 0.9; ALP (3 h): 1404.2 IU/L; ALT (3 h): 46.4 IU/L; AST (3 h): 80.8 IU/L; BUN (3 h): 12 mg/dL; CRE (3 h): 0.2 mg/dL; Ca (3 h): 10.8 mg/dL; Cl (3 h): 105.4 meq/L; DBIL (3 h): 0.008 mg/dL; GLC (3 h): 147.4 mg/dL; IP (3 h): 10.1 mg/dL; K (3 h): 3.8 meq/L; LDH (3 h): 86 IU/L; Na (3 h): 143.8 meq/L; PL (3 h): 126.8 mg/dL; RALB (3 h): 2.8 g/dL; TBIL (3 h): 0.018 mg/dL; TC (3 h): 71.8 mg/dL; TG (3 h): 60 mg/dL; TP (3 h): 6 g/dL; gamma-GTP (3 h): 1 IU/L; TERMINAL_BW (6 h): 195 g; APTT (6 h): 19.7 s; Bas (6 h): 0%; Eos (6 h): 1%; Fbg (6 h): 344.4 mg/dL; Hb (6 h): 14.6 g/dL; Ht (6 h): 44.7%; Lym (6 h): 72.2%; MCH (6 h): 21.7 pg; MCHC (6 h): 32.6%; MCV (6 h): 66.6 fL; Mono (6 h): 4.2%; Neu (6 h): 21.4%; PT (6 h): 16.1 s; Plat (6 h): 105.8 x10_4/uL; RBC (6 h): 670.8 x10_4/ul; Ret (6 h): 9%; WBC (6 h): 59.6 x10_2/uL; KIDNEY_L (6 h): 0.9 g; KIDNEY_R (6 h): 0.9 g; KIDNEY_TOTAL (6 h): 1.8 g; LIVER (6 h): 8 g; A/G (6 h): 0.9; ALP (6 h): 1619.2 IU/L; ALT (6 h): 45.2 IU/L; AST (6 h): 77.4 IU/L; BUN (6 h): 14.8 mg/dL; CRE (6 h): 0.2 mg/dL; Ca (6 h): 10.9 mg/dL; Cl (6 h): 106.2 meq/L; DBIL (6 h): 0.004 mg/dL; GLC (6 h): 108.4 mg/dL; IP (6 h): 10.2 mg/dL; K (6 h): 4.1 meq/L; LDH (6 h): 82.6 IU/L; Na (6 h): 143.2 meq/L; PL (6 h): 135.8 mg/dL; RALB (6 h): 2.8 g/dL; TBIL (6 h): 0.018 mg/dL; TC (6 h): 79.8 mg/dL; TG (6 h): 46.6 mg/dL; TP (6 h): 6 g/dL; gamma-GTP (6 h): 1.2 IU/L; TERMINAL_BW (9 h): 193.3 g; APTT (9 h): 19.1 s; Bas (9 h): 0.4%; Eos (9 h): 0.8%; Fbg (9 h): 391.6 mg/dL; Hb (9 h): 13.4 g/dL; Ht (9 h): 41.5%; Lym (9 h): 72.2%; MCH (9 h): 21.3 pg; MCHC (9 h): 32.3%; MCV (9 h): 65.8 fL; Mono (9 h): 3%; Neu (9 h): 23.2%; PT (9 h): 16.8 s; Plat (9 h): 118.3 x10_4/uL; RBC (9 h): 629.8 x10_4/ul; Ret (9 h): 8.9%; WBC (9 h): 93.5 x10_2/uL; KIDNEY_L (9 h): 0.9 g; KIDNEY_R (9 h): 0.9 g; KIDNEY_TOTAL (9 h): 1.7 g; LIVER (9 h): 8.2 g; A/G (9 h): 0.9; ALP (9 h): 1339.6 IU/L; ALT (9 h): 46.8 IU/L; AST (9 h): 83.2 IU/L; BUN (9 h): 15.4 mg/dL; CRE (9 h): 0.2 mg/dL; Ca (9 h): 10.9 mg/dL; Cl (9 h): 106.4 meq/L; DBIL (9 h): 0.008 mg/dL; GLC (9 h): 96.8 mg/dL; IP (9 h): 10.3 mg/dL; K (9 h): 3.9 meq/L; LDH (9 h): 85.2 IU/L; Na (9 h): 143.6 meq/L; PL (9 h): 127.8 mg/dL; RALB (9 h): 2.7 g/dL; TBIL (9 h): 0.022 mg/dL; TC (9 h): 72.4 mg/dL; TG (9 h): 50.6 mg/dL; TP (9 h): 5.8 g/dL; gamma-GTP (9 h): 1.2 IU/L; TERMINAL_BW (24 h): 201.3 g; APTT (24 h): 21.1 s; Bas (24 h): 0%; Eos (24 h): 1%; Fbg (24 h): 308 mg/dL; Hb (24 h): 13.2 g/dL; Ht (24 h): 41.1%; Lym (24 h): 81.2%; MCH (24 h): 20.4 pg; MCHC (24 h): 32.1%; MCV (24 h): 63.5 fL; Mono (24 h): 3%; Neu (24 h): 13.6%; PT (24 h): 16.2 s; Plat (24 h): 114.9 x10_4/uL; RBC (24 h): 647.2 x10_4/ul; Ret (24 h): 7%; WBC (24 h): 88.4 x10_2/uL; KIDNEY_L (24 h): 0.9 g; KIDNEY_R (24 h): 0.9 g; KIDNEY_TOTAL (24 h): 1.8 g; LIVER (24 h): 8.5 g; A/G (24 h): 0.9; ALP (24 h): 1944.4 IU/L; ALT (24 h): 46.8 IU/L; AST (24 h): 75 IU/L; BUN (24 h): 15.4 mg/dL; CRE (24 h): 0.2 mg/dL; Ca (24 h): 10.8 mg/dL; Cl (24 h): 108 meq/L; DBIL (24 h): 0.008 mg/dL; GLC (24 h): 185.4 mg/dL; IP (24 h): 8.1 mg/dL; K (24 h): 3.6 meq/L; LDH (24 h): 74 IU/L; Na (24 h): 142.2 meq/L; PL (24 h): 129.6 mg/dL; RALB (24 h): 2.7 g/dL; TBIL (24 h): 0.022 mg/dL; TC (24 h): 74.8 mg/dL; TG (24 h): 45.4 mg/dL; TP (24 h): 5.7 g/dL; gamma-GTP (24 h): 1 IU/L
